tested on: Lox-IMVI melanoma cell line; assay: Lox-IMVI anti-proliferative assay (growth inhibition, Cell Titer-Glo); assay type: cell-based, human; settings: Homo sapiens; IC50 activity level in the cell-based Lox-IMVI anti-proliferative assay; read-out: Activity
Method in brief: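 IC50 values reflect the concentration giving 50% of DMSO-control luminescence after 72 h of treatment, fitted with a four-parameter logistic model. Cells were cultured in RPMI + 10% FBS with compound from 0.5 nM to 10 μM.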

SMILES | IC50 [nM]
NC(=O)[C@H]1CC[C@@H](n2c(Nc3c(F)cccc3F)nc3cnc(N[C@H]4CC[C@H](O)C4)nc32)CC1 [Example 326, (1R,4s)-4-(8-(2,6-difluorophenylamino)-2-((1S,3S)-3-hydroxycyclopentylamino)-9H-purin-9-yl)cyclohexanecarboxamide] | > 1000
NC(=O)[C@H]1CC[C@@H](n2c(Nc3c(Cl)cccc3Cl)nc3cnc(N[C@H]4CC[C@H](O)C4)nc32)CC1 [Example 327, (1R,4s)-4-(8-(2,6-dichlorophenylamino)-2-((1S,3S)-3-hydroxycyclopentylamino)-9H-purin-9-yl)cyclohexanecarboxamide] | 500 to 1000
NC(=O)[C@H]1CC[C@@H](n2c(Nc3c(F)cc(Cl)cc3F)nc3cnc(N[C@@H]4CC[C@H](O)C4)nc32)CC1 [Example 328, (1S,4s)-4-(8-(4-chloro-2,6-difluorophenylamino)-2-((1R,3S)-3-hydroxycyclopentylamino)-9H-purin-9-yl)cyclohexanecarboxamide] | > 1000
NC(=O)[C@H]1CC[C@@H](n2c(Nc3c(F)cc(Cl)cc3F)nc3cnc(N[C@H]4CC[C@H](O)C4)nc32)CC1 [Example 329, (1R,4s)-4-(8-(4-chloro-2,6-difluorophenylamino)-2-((1S,3S)-3-hydroxycyclopentylamino)-9H-purin-9-yl)cyclohexanecarboxamide] | 500 to 1000
NC(=O)[C@H]1CC[C@@H](n2c(Nc3c(Cl)cc(Cl)cc3Cl)nc3cnc(N[C@H]4CC[C@H](O)C4)nc32)CC1 [Example 330, (1R,4s)-4-(2-((1S,3S)-3-hydroxycyclopentylamino)-8-(2,4,6-trichlorophenylamino)-9H-purin-9-yl)cyclohexanecarboxamide] | 500 to 1000
NC(=O)[C@H]1CC[C@@H](n2c(Nc3c(F)cc(F)cc3F)nc3cnc(N[C@H]4CC[C@H](O)C4)nc32)CC1 [Example 331, (1R,4s)-4-(2-((1S,3S)-3-hydroxycyclopentylamino)-8-(2,4,6-trifluorophenylamino)-9H-purin-9-yl)cyclohexanecarboxamide] | > 1000
NC(=O)[C@H]1CC[C@@H](n2c(Nc3c(F)cc(F)cc3F)nc3cnc(N[C@@H]4CC[C@H](O)C4)nc32)CC1 [Example 332, (1S,4s)-4-(2-((1R,3S)-3-hydroxycyclopentylamino)-8-(2,4,6-trifluorophenylamino)-9H-purin-9-yl)cyclohexanecarboxamide] | > 1000
NC(=O)[C@H]1CC[C@@H](n2c(Nc3c(Cl)cc(Cl)cc3Cl)nc3cnc(N[C@@H]4CC[C@H](O)C4)nc32)CC1 [Example 333, (1S,4s)-4-(2-((1R,3S)-3-hydroxycyclopentylamino)-8-(2,4,6-trichlorophenylamino)-9H-purin-9-yl)cyclohexanecarboxamide] | 500 to 1000
CC[C@H](C)Nc1ncc2nc(Nc3c(F)cc(F)cc3F)n([C@H]3CC[C@@H](C(N)=O)CC3)c2n1 [Example 334, (1R,4s)-4-(2-(sec-butylamino)-8-(2,4,6-trifluorophenylamino)-9H-purin-9-yl)cyclohexanecarboxamide] | 500 to 1000
CC[C@H](C)Nc1ncc2nc(Nc3c(F)cccc3F)n([C@H]3CC[C@@H](C(N)=O)CC3)c2n1 [Example 335, (1R,4s)-4-(2-(sec-butylamino)-8-(2,6-difluorophenylamino)-9H-purin-9-yl)cyclohexanecarboxamide] | > 1000
CC[C@H](C)Nc1ncc2nc(Nc3c(Cl)cccc3Cl)n([C@H]3CC[C@@H](C(N)=O)CC3)c2n1 [Example 336, (1R,4s)-4-(2-(sec-butylamino)-8-(2,6-dichlorophenylamino)-9H-purin-9-yl)cyclohexanecarboxamide] | > 1000
CC[C@H](C)Nc1ncc2nc(Nc3c(F)cccc3Cl)n([C@H]3CC[C@@H](C(N)=O)CC3)c2n1 [Example 337, (1R,4s)-4-(2-(sec-butylamino)-8-(2-chloro-6-fluorophenylamino)-9H-purin-9-yl)cyclohexanecarboxamide] | > 1000
CC[C@H](C)Nc1ncc2nc(Nc3c(F)cc(F)cc3Cl)n([C@H]3CC[C@@H](C(N)=O)CC3)c2n1 [Example 338, (1R,4s)-4-(2-(sec-butylamino)-8-(2-chloro-4,6-difluorophenylamino)-9H-purin-9-yl)cyclohexanecarboxamide] | 500 to 1000
CC[C@H](C)Nc1ncc2nc(Nc3c(F)cc(Cl)cc3Cl)n([C@H]3CC[C@@H](C(N)=O)CC3)c2n1 [Example 339, (1R,4s)-4-(2-(sec-butylamino)-8-(2,4-dichloro-6-fluorophenylamino)-9H-purin-9-yl)cyclohexanecarboxamide] | 500 to 1000
CCC(C)Nc1ncc2nc(Nc3c(F)ccc(Cl)c3F)n([C@H]3CC[C@@H](C(N)=O)CC3)c2n1 (stereo partly drawn) [Example 340, (1R,4s)-4-(2-(sec-butylamino)-8-(3-chloro-2,6-difluorophenylamino)-9H-purin-9-yl)cyclohexanecarboxamide] | > 1000
C[C@@H]1CC[C@@H](Nc2ncc3nc(Nc4c(F)cc(F)cc4F)n([C@H]4CC[C@@H](C(N)=O)CC4)c3n2)C[C@H]1O [Example 341, (1S,4s)-4-(2-((1R,3R,4R)-3-hydroxy-4-methylcyclohexylamino)-8-(2,4,6-trifluorophenylamino)-9H-purin-9-yl)cyclohexanecarboxamide] | > 1000
C[C@@H]1CC[C@@H](Nc2ncc3nc(Nc4c(F)cccc4Cl)n([C@H]4CC[C@@H](C(N)=O)CC4)c3n2)C[C@H]1O [Example 342, (1S,4s)-4-(8-(2-chloro-6-fluorophenylamino)-2-((1R,3R,4R)-3-hydroxy-4-methylcyclohexylamino)-9H-purin-9-yl)cyclohexanecarboxamide] | > 1000
C[C@@H]1CC[C@@H](Nc2ncc3nc(Nc4c(F)cccc4F)n([C@H]4CC[C@@H](C(N)=O)CC4)c3n2)C[C@H]1O [Example 343, (1S,4s)-4-(8-(2,6-difluorophenylamino)-2-((1R,3R,4R)-3-hydroxy-4-methylcyclohexylamino)-9H-purin-9-yl)cyclohexanecarboxamide] | > 1000
C[C@@H]1CC[C@@H](Nc2ncc3nc(Nc4c(F)cc(F)cc4Cl)n([C@H]4CC[C@@H](C(N)=O)CC4)c3n2)C[C@H]1O [Example 344, (1S,4s)-4-(8-(2-chloro-4,6-difluorophenylamino)-2-((1R,3R,4R)-3-hydroxy-4-methylcyclohexylamino)-9H-purin-9-yl)cyclohexanecarboxamide] | > 1000
C[C@@H]1CC[C@@H](Nc2ncc3nc(Nc4c(Cl)cccc4Cl)n([C@H]4CC[C@@H](C(N)=O)CC4)c3n2)C[C@H]1O [Example 345, (1S,4s)-4-(8-(2,6-dichlorophenylamino)-2-((1R,3R,4R)-3-hydroxy-4-methylcyclohexylamino)-9H-purin-9-yl)cyclohexanecarboxamide] | > 1000
C[C@@H]1CC[C@@H](Nc2ncc3nc(Nc4c(F)cc(Cl)cc4Cl)n([C@H]4CC[C@@H](C(N)=O)CC4)c3n2)C[C@H]1O [Example 346, (1S,4s)-4-(8-(2,4-dichloro-6-fluorophenylamino)-2-((1R,3R,4R)-3-hydroxy-4-methylcyclohexylamino)-9H-purin-9-yl)cyclohexanecarboxamide] | 250 to 500
NC(=O)[C@H]1CC[C@@H](n2c(Nc3c(F)cc(F)cc3F)nc3cnc(N[C@@H]4CCC[C@H](O)C4)nc32)CC1 [Example 347, (1S,4s)-4-(2-((1R,3S)-3-hydroxycyclohexylamino)-8-(2,4,6-trifluorophenylamino)-9H-purin-9-yl)cyclohexanecarboxamide] | > 1000
NC(=O)[C@H]1CC[C@@H](n2c(Nc3c(F)cccc3F)nc3cnc(N[C@@H]4CCC[C@H](O)C4)nc32)CC1 [Example 348, (1S,4s)-4-(8-(2,6-difluorophenylamino)-2-((1R,3S)-3-hydroxycyclohexylamino)-9H-purin-9-yl)cyclohexanecarboxamide] | > 1000
NC(=O)[C@H]1CC[C@@H](n2c(Nc3c(Cl)cccc3Cl)nc3cnc(N[C@@H]4CCC[C@H](O)C4)nc32)CC1 [Example 349, (1S,4s)-4-(8-(2,6-dichlorophenylamino)-2-((1R,3S)-3-hydroxycyclohexylamino)-9H-purin-9-yl)cyclohexanecarboxamide] | > 1000
NC(=O)[C@H]1CC[C@@H](n2c(Nc3c(F)cccc3Cl)nc3cnc(N[C@@H]4CCC[C@H](O)C4)nc32)CC1 [Example 350, (1S,4s)-4-(8-(2-chloro-6-fluorophenylamino)-2-((1R,3S)-3-hydroxycyclohexylamino)-9H-purin-9-yl)cyclohexanecarboxamide] | 500 to 1000
NC(=O)[C@H]1CC[C@@H](n2c(Nc3c(F)cc(F)cc3Cl)nc3cnc(N[C@@H]4CCC[C@H](O)C4)nc32)CC1 [Example 351, (1S,4s)-4-(8-(2-chloro-4,6-difluorophenylamino)-2-((1R,3S)-3-hydroxycyclohexylamino)-9H-purin-9-yl)cyclohexanecarboxamide] | > 1000
NC(=O)[C@H]1CC[C@@H](n2c(Nc3c(F)cc(Cl)cc3F)nc3cnc(N[C@@H]4CCC[C@H](O)C4)nc32)CC1 [Example 352, (1S,4s)-4-(8-(4-chloro-2,6-difluorophenylamino)-2-((1R,3S)-3-hydroxycyclohexylamino)-9H-purin-9-yl)cyclohexanecarboxamide] | 500 to 1000
NC(=O)[C@H]1CC[C@@H](n2c(Nc3c(Cl)cc(Cl)cc3Cl)nc3cnc(N[C@@H]4CCC[C@H](O)C4)nc32)CC1 [Example 353, (1S,4s)-4-(2-((1R,3S)-3-hydroxycyclohexylamino)-8-(2,4,6-trichlorophenylamino)-9H-purin-9-yl)cyclohexanecarboxamide] | 250 to 500
NC(=O)[C@H]1CC[C@@H](n2c(Nc3c(Cl)cc(F)cc3Cl)nc3cnc(N[C@@H]4CCC[C@H](O)C4)nc32)CC1 [Example 354, (1S,4s)-4-(8-(2,6-dichloro-4-fluorophenylamino)-2-((1R,3S)-3-hydroxycyclohexylamino)-9H-purin-9-yl)cyclohexanecarboxamide] | 500 to 1000

Source: patent US11590139B2, “Substituted aminopurine compounds, compositions thereof, and methods of treatment therewith” (Signal Pharmaceuticals, LLC, priority 2014, dated 2023)
